One experiment addresses VvelCSP1 (Vespa velutina auraria, UniProt A0A384ZVP9). Description: Fluorescence competitive binding assay (1-NPN probe) with VvelCSP1. As to the method: (§1) Fluorescence competitive binding assays were employed to characterize the interactions between VvelCSPs and 13 volatiles shared between the elaiosomes of S. tuberosa and the cuticular hydrocarbons of honeybees. These tests were performed in 1 cm path length quartz cuvettes with an excitation wavelength of 337 nm and emission wavelength scanning from 400–450 nm. The volatiles and the fluorescent probe 1-NPN (1-N-phenylnaphthylamine), listed in Supplementary Table S2, were dissolved in methanol to prepare 100 mM stock solutions, which were then diluted to 1 mM working solutions [25]. To remove any potential endogenous ligands, the purified proteins were delipidated by three washes with an equal volume of dichloromethane (1:1 v/v). Each wash involved a 10-min incubation, and the process was followed by evaporation of the residual solvent under a gentle stream of nitrogen. Purified CSPs were resuspended in 20 mM Tris-HCl buffer (pH 7.5) to a final concentration of 2 μM. Binding parameters for CSP-NPN were determined by titration: 2 mL of CSP solution (2 μM) was titrated with 1-NPN (final concentrations: 2−24 μM). Maximum fluorescence intensity was recorded, and the dissociation constant was calculated. […] After incubation in the dark for 2 min, fluorescence quenching was measured. Half-maximal inhibitory concentration (IC50) values for volatiles were calculated from the competition curves, and their binding constants (Ki) were subsequently derived. The presented data, including IC50 and Ki values, originate from a single experiment under uniform conditions to ensure comparability (Supplementary Table S3).

A further experiment concerns the target VvelCSP4. Put plainly: Fluorescence competitive binding assay (1-NPN probe) with VvelCSP4. More on the design: species or system Vespa velutina auraria. As to the method:
as §1

Where [1] appears, read: VvelCSP4 2 μM, 1-NPN 1 μM, Tris-HCl pH 7.5, single experiment, read-out: IC50 (ligand concentration displacing 50% of the fluorescence intensity of the CSPs/NPN complex).
The mark [2] stands for this setting: VvelCSP4, derived from IC50, read-out: Ki (dissociation constant).

Read-outs that look alike come from different tables or passages of the source.

We go through four compounds from paper PMC12652730, “The Chemoreceptive Molecular Mechanism Underlying CSP-Mediated Recognition of Seed Elaiosome from Stemona tuberosa by Hornets” (Genes, 2025).

VvelCSP1, sequence (A0A384ZVP9 entry or part of it): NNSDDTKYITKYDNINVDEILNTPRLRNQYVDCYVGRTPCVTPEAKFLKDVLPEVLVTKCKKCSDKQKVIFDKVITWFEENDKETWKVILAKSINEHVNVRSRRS

The Ki is a dissociation constant, usually derived from enzyme kinetics or from competition with a known ligand. Turning to `CCCCCCCCCCCCCCCCCCCCCCC` [Tricosane], the Raw fluorescence intensity was found to be 193.01 on VvelCSP1 (VvelCSP1, chemical 0.5 μM); 170.16 at VvelCSP1 (VvelCSP1, chemical 1 μM); 140.89 at VvelCSP1 (VvelCSP1, chemical 2 μM); 116.63 at VvelCSP1 (VvelCSP1, chemical 4 μM); 101.34 on VvelCSP1 (VvelCSP1, chemical 6 μM); 94.22 at VvelCSP1 (VvelCSP1, chemical 8 μM). Also, the Raw fluorescence intensity is given as 88.89 on VvelCSP1 (VvelCSP1, chemical 12 μM); 86.00 at VvelCSP1 (VvelCSP1, chemical 16 μM); 207.46 in the experiment with VvelCSP4 (VvelCSP4, chemical 0.5 μM); 177.45 in the experiment with VvelCSP4 (VvelCSP4, chemical 1 μM); 153.67 with VvelCSP4 (VvelCSP4, chemical 2 μM); 134.98 in the experiment with VvelCSP4 (VvelCSP4, chemical 4 μM). Also, the Raw fluorescence intensity worked out at 119.90 with VvelCSP4 (VvelCSP4, chemical 6 μM); 111.62 with VvelCSP4 (VvelCSP4, chemical 8 μM); 110.10 with VvelCSP4 (VvelCSP4, chemical 12 μM); 107.68 in the experiment on VvelCSP4 (VvelCSP4, chemical 16 μM). Moreover, the IC50 at VvelCSP4 (setting [1]) turned out to be 5.09 µM. Further, on VvelCSP4 (setting [2]), the Ki was determined as 3.85 µM.

On to `CCCCCCCCCCCCCCCCCCCCCCCCCCC` [Heptacosane], for which the Raw fluorescence intensity is listed as 222.51 on VvelCSP1 (VvelCSP1, chemical 0.5 μM); 205.55 on VvelCSP1 (VvelCSP1, chemical 1 μM); 159.00 on VvelCSP1 (VvelCSP1, chemical 2 μM); 136.99 on VvelCSP1 (VvelCSP1, chemical 4 μM); 130.11 at VvelCSP1 (VvelCSP1, chemical 6 μM); 123.81 at VvelCSP1 (VvelCSP1, chemical 8 μM). The Raw fluorescence intensity amounted to 117.37 on VvelCSP1 (VvelCSP1, chemical 12 μM); 115.92 on VvelCSP1 (VvelCSP1, chemical 16 μM); 218.17 with VvelCSP4 (VvelCSP4, chemical 0.5 μM); 194.71 in the experiment on VvelCSP4 (VvelCSP4, chemical 1 μM); 172.10 in the experiment on VvelCSP4 (VvelCSP4, chemical 2 μM); 154.91 in the experiment on VvelCSP4 (VvelCSP4, chemical 4 μM). The Raw fluorescence intensity amounted to 140.68 with VvelCSP4 (VvelCSP4, chemical 6 μM); 130.60 in the experiment on VvelCSP4 (VvelCSP4, chemical 8 μM); 128.65 in the experiment on VvelCSP4 (VvelCSP4, chemical 12 μM); 125.52 with VvelCSP4 (VvelCSP4, chemical 16 μM). Further, the IC50 on VvelCSP4 (setting [1]) came out at 6.2 µM. At VvelCSP4 (setting [2]), the Ki came to 4.6 µM.

Consider `CCCCCCCCCCCCCCCCCCCC` [Eicosane], for which the Raw fluorescence intensity on VvelCSP1 (VvelCSP1, chemical 0.5 μM) is given as 246.85; at VvelCSP1 (VvelCSP1, chemical 1 μM), 234.09; at VvelCSP1 (VvelCSP1, chemical 2 μM), 206.27; on VvelCSP1 (VvelCSP1, chemical 4 μM), 199.36; on VvelCSP1 (VvelCSP1, chemical 6 μM), 183.72; on VvelCSP1 (VvelCSP1, chemical 8 μM), 175.07. Moreover, the Raw fluorescence intensity turned out to be 172.10 at VvelCSP1 (VvelCSP1, chemical 12 μM); 170.22 at VvelCSP1 (VvelCSP1, chemical 16 μM); 192.14 with VvelCSP4 (VvelCSP4, chemical 0.5 μM); 182.38 with VvelCSP4 (VvelCSP4, chemical 1 μM); 164.23 in the experiment with VvelCSP4 (VvelCSP4, chemical 2 μM); 154.96 in the experiment on VvelCSP4 (VvelCSP4, chemical 4 μM). Further, the Raw fluorescence intensity is listed as 139.00 in the experiment with VvelCSP4 (VvelCSP4, chemical 6 μM); 133.35 with VvelCSP4 (VvelCSP4, chemical 8 μM); 128.24 in the experiment on VvelCSP4 (VvelCSP4, chemical 12 μM); 125.62 with VvelCSP4 (VvelCSP4, chemical 16 μM). The IC50 on VvelCSP4 (VvelCSP4, read-out: IC50 (μM), no binding symbol) is more than 24 µM. In addition, the Ki on VvelCSP4 (VvelCSP4, read-out: Ki (μM), no binding symbol) was more than 18 µM.

In the case of `CCCCCCCCCCCCCCCCCCCCCC` [Docosane], the Raw fluorescence intensity was determined as 246.77 on VvelCSP1 (VvelCSP1, chemical 0.5 μM); 231.89 on VvelCSP1 (VvelCSP1, chemical 1 μM); 197.76 at VvelCSP1 (VvelCSP1, chemical 2 μM); 171.56 at VvelCSP1 (VvelCSP1, chemical 4 μM); 161.14 at VvelCSP1 (VvelCSP1, chemical 6 μM); 158.53 on VvelCSP1 (VvelCSP1, chemical 8 μM). For the same compound, the Raw fluorescence intensity at VvelCSP1 (VvelCSP1, chemical 12 μM) is listed as 154.82; at VvelCSP1 (VvelCSP1, chemical 16 μM), 153.17; with VvelCSP4 (VvelCSP4, chemical 0.5 μM), 205.93; with VvelCSP4 (VvelCSP4, chemical 1 μM), 179.89; with VvelCSP4 (VvelCSP4, chemical 2 μM), 159.86; in the experiment with VvelCSP4 (VvelCSP4, chemical 4 μM) it was 127.80. The Raw fluorescence intensity in the experiment on VvelCSP4 (VvelCSP4, chemical 6 μM) was 108.85; in the experiment on VvelCSP4 (VvelCSP4, chemical 8 μM) it was 102.51; in the experiment on VvelCSP4 (VvelCSP4, chemical 12 μM), 95.75; in the experiment on VvelCSP4 (VvelCSP4, chemical 16 μM), 91.32. Besides, on VvelCSP4 (setting [1]), the IC50 is 3.68 µM. The Ki at VvelCSP4 (setting [2]) turned out to be 2.73 µM.
